Experimental findings from patent US10626058B2, “Urea ammonium sulphate-based composition and method for the manufacture thereof” (YARA INTERNATIONAL ASA, priority 2015, dated 2020) are described below.

The format of the data set is physicochemical. Conditions: for effect of added alkaline compound on stability of nBTPT on UAS: UAS+500 ppm nBTPT powder+2350 ppm rapeseed oil, 12 days open to air storage at 30° C. in an oven; for half-life time for nBTPT: stored in bags at room temperature (20-25° C.). As to the method:
For lab scale experiments, 1.2 kg of solid fertilizer material was added to a lab scale drum. In a next step, the nBTPT material was slowly added. A residence time of 10 minutes was applied and the rotating speed of the drum was consequently the same in each experiment. In case a moisture repellent coating was added, a nebulizer was used and depending on the order of addition, the moisture repellent coating was added before or after addition of the nBTPT material. Before use, the moisture repellent coating was preheated to 80° C. Larger scale experiments with amounts up to 40 kg of fertilizer material were performed in a concrete mixer.
The samples were stored under several conditions, dependent on the type of samples: • 20° C. closed plastic container with head space (Climate chamber, 80% relative humidity) • Bagged at room temperature (20-25° C.) or in nissenhut • Open to air in nissenhut • Cylinder test in nissenhut • Open pile in nissenhut
For some samples, an accelerated stability test was done storing these samples at elevated temperatures: • Oven of 30° C. closed plastic container • Oven of 30° C. open to air • 30° C./60% RH open to air • 70° C. closed plastic container
Typically, a day/night cycle is generated in the nissenhut, with temperature fluctuations between 0 to 42° C. and fluctuations of relative humidity between 20 and 90%, which can be compared with real life storage in silos.
HPLC analysis of nBTPT is done as described in the procedure CEN 15688-2007.

Where two headings read alike, the source gives them in different places.

With `O=C([O-])[O-].[Ca+2]` [calcium carbonate], the “effect of added alkaline compound on stability of nBTPT on UAS” value (from here on “effect of added alkaline compound”) was “stabilizing effect”.

Regarding `CCCCNP(N)(N)=S` [nBTPT, N-(n-butyl) thiophosphoric triamide], the “effect of moisture repellent coating and of solid particulate form on stability of nBTPT on UAS” value (7 days in closed plastic containers with head space at 20° C./80% relative humidity, FIG. 10) was “beneficial effect”. Also, for the setting “16 days in bags at nissenhut (16-42° C./27-77% relative humidity), FIG. 8”, the “effect of calcium oxide addition and of solid particulate form on stability of nBTPT on UAS” value is listed as “beneficial effect”. The “effect of calcium oxide addition and of bagged storage on stability of nBTPT on UAS” value (16 days in nissenhut (16-42° C./27-77% relative humidity), FIG. 9) was “beneficial effect”. Further, the “effect of calcium oxide, solid particulate form, moisture repellent coating and bagged storage on stability of nBTPT on UAS” value (16 days in nissenhut (16-42° C./27-77% relative humidity), FIG. 12) is on record as “beneficial effect”. Moreover, the “effect of solid particulate form and of bagged storage on stability of nBTPT on UAS” value (28 days at room temperature (20-25° C.), FIG. 11) is recorded as “beneficial effect”. The “effect of bagged versus open to air storage on stability of nBTPT on UAS” value (solid nBTPT (500 ppm), 28 days at room temperature (20-25° C.)) is given as “beneficial effect”. For the same molecule, the “half-life time for nBTPT” value (solid particulate form on UAS plus alkaline or alkaline-forming compound and moisture repellent coating) is on record as 6-12 months; the “half-life time for nBTPT” value (urease inhibitor in liquid form on UAS) was “only a few days”; the “half-life time for nBTPT” value (urease inhibitor in solid particulate form on UAS) is recorded as “up to 4 months”.

As to `[O]=[Ca]` [calcium oxide], the “effect of added alkaline compound” value was “stabilizing effect”. Besides, the “effect of added calcium oxide on stability of nBTPT on UAS” value (500-2350 ppm calcium oxide, UAS+500 ppm nBTPT powder, 8 days open to air at nissenhut (16-42° C./27-77% relative humidity)) is recorded as “large stabilizing effect”.

With `[O]=[Zn]` [zinc oxide], the “effect of added alkaline compound” value was “best effect”.
